A word on the Ki: it is a dissociation constant, usually derived from enzyme kinetics or from competition with a known ligand. A high value points to lower affinity.

This passage reports Ki results from US10233188B2, “CDK2/4/6 inhibitors” (priority 2016, dated 2019).

Assay [1] addresses CDK2/Cyclin E1 (Homo sapiens (Human), UniProt P24941). Kind of assay: biochemical. As to conditions: CDK2_Ki (nM), phosphorylated CDK2/Cyclin E1, 150 μM ATP, Morrison tight-binding fit.
Method: The assay was initiated with the addition of ATP, following a fifteen minutes pre-incubation of enzyme and inhibitor at room temperature in the reaction mixture. The reaction was stopped after 45 minutes at room temperature by the addition of 50 μL of 80 mM EDTA, pH 7.5.
In assay [2] the target is CDK6/Cyclin D1 (Homo sapiens (Human), UniProt Q00534). Nature of the assay: biochemical. As to conditions: CDK6_Ki (nM), non-phosphorylated CDK6/Cyclin D1, 2 mM ATP, Morrison fit.
Chain of CDK6/Cyclin D1 (Q00534 whole entry): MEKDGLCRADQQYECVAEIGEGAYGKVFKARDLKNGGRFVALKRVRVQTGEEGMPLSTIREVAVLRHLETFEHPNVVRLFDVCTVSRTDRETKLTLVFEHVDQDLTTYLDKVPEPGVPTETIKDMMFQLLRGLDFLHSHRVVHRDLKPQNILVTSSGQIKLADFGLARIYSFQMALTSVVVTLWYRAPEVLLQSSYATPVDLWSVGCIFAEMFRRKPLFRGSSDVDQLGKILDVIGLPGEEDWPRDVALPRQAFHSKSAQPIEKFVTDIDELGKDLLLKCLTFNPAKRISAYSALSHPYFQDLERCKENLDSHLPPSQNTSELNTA
Chain of CDK6/Cyclin D1 (P24385 whole entry partner): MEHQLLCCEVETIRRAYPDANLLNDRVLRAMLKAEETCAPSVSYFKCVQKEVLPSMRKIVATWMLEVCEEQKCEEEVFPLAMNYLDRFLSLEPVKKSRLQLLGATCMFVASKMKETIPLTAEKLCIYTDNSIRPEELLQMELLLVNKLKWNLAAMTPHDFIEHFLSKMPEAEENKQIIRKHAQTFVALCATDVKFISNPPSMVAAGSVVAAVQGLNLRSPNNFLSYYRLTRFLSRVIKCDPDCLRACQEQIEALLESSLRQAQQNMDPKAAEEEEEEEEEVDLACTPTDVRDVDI

As to `CNS(=O)(=O)N1CCC(Nc2ncc3cc(F)c(=O)n([C@H]4CCC[C@]4(C)O)c3n2)CC1` (single isomer, unassigned) [Example 125, (+)-4-({6-fluoro-8-[(1R*,2R*)-2-hydroxy-2-methylcyclopentyl]-7-oxo-7,8-dihydropyrido[2,3-d]pyrimidin-2-yl}amino)-N-methylpiperidine-1-sulfonamide], the Ki is 6.21 nM in assay [1] and 36.6 nM in assay [2].

On to `CS(=O)(=O)N1CCC(Nc2ncc3cc(CC(F)F)c(=O)n([C@@H]4CCC[C@@H](O)C4)c3n2)CC1` [Example 140, 6-(2,2-difluoroethyl)-8-[(1R,3R)-3-hydroxycyclohexyl]-2-{[1-(methylsulfonyl)piperidin-4-yl]amino}pyrido[2,3-d]pyrimidin-7(8H)-one], for which the results for the Ki in assay [1] and in assay [2] were 1.97 nM and 0.63 nM, respectively.

With `CNS(=O)(=O)N1CCC(Nc2ncc3ccc(=O)n([C@H]4C[C@H](O)CC[C@@H]4F)c3n2)CC1` (single isomer, unassigned) [Example 219, (+)-4-({8-[(1S*,2S*,5R*)-2-fluoro-5-hydroxycyclohexyl]-7-oxo-7,8-dihydropyrido[2,3-d]pyrimidin-2-yl}amino)-N-methylpiperidine-1-sulfonamide], the Ki in assay [1] was determined as 0.78 nM; in assay [2], 3.9 nM.

As to `NS(=O)(=O)N1CCC(Nc2ncc3ccc(=O)n(C4CCCC4)c3n2)CC1` [Example 13, 4-[(8-cyclopentyl-7-oxo-7,8-dihydropyrido[2,3-d]pyrimidin-2-yl)amino]piperidine-1-sulfonamide], the values for the Ki in assay [1] and in assay [2] were 0.19 nM and 0.88 nM, respectively.

As for `CCS(=O)(=O)N1CCC(Nc2ncc3ccc(=O)n(C4CCCC4)c3n2)CC1` [Example 16, 8-cyclopentyl-2-{[1-(ethylsulfonyl)piperidin-4-yl]amino}pyrido[2,3-d]pyrimidin-7(8H)-one], the Ki in assay [1] amounted to 0.48 nM; in assay [2], 1.14 nM.

Take `Cn1cc(S(=O)(=O)N2CCC(Nc3ncc4ccc(=O)n([C@H]5CCC[C@]5(C)O)c4n3)CC2)cn1` (single isomer, unassigned) [Example 83, (+)-8-[(1R*,2R*)-2-hydroxy-2-methylcyclopentyl]-2-({1-[(1-methyl-1H-pyrazol-4-yl)sulfonyl]piperidin-4-yl}amino)pyrido[2,3-d]pyrimidin-7(8H)-one]: the Ki in assay [1] is 1.98 nM; in assay [2], 9.77 nM.

`CC(C)(O)CS(=O)(=O)N1CCC(Nc2ncc3ccc(=O)n(C4CCCC4)c3n2)CC1` [Example 17, 8-cyclopentyl-2-({1-[(2-hydroxy-2-methylpropyl)sulfonyl]piperidin-4-yl}amino)pyrido[2,3-d]pyrimidin-7(8H)-one]: the Ki in assay [1] came out at 1.79 nM; in assay [2], 2.33 nM.

As to `C[C@@H]1CCC[C@@H]1n1c(=O)c(CO)cc2cnc(NC3CCN(S(C)(=O)=O)CC3)nc21` [Example 51, 6-(hydroxymethyl)-8-[(1S,2R)-2-methylcyclopentyl]-2-{[1-(methylsulfonyl)piperidin-4-yl]amino}pyrido[2,3-d]pyrimidin-7(8H)-one], the Ki came out at 1.74 nM in assay [1] and 0.13 nM in assay [2].

Turning to `CS(=O)(=O)N1CCC(Nc2ncc3cc(C(F)F)c(=O)n(C4CCCC4)c3n2)CC1` [Example 30, 8-cyclopentyl-6-(difluoromethyl)-2-{[1-(methylsulfonyl)piperidin-4-yl]amino}pyrido[2,3-d]pyrimidin-7(8H)-one], the Ki in assay [1] is 1.35 nM; in assay [2], 0.34 nM.

As to `COC(C)(C)CNS(=O)(=O)N1CCC(Nc2ncc3cc(C)c(=O)n([C@H]4CCC[C@]4(C)O)c3n2)CC1` (single isomer, unassigned) [Example 99, (+)-4-({8-[(1R*,2R*)-2-hydroxy-2-methylcyclopentyl]-6-methyl-7-oxo-7,8-dihydropyrido[2,3-d]pyrimidin-2-yl}amino)-N-(2-methoxy-2-methylpropyl)piperidine-1-sulfonamide], the figures for the Ki in assay [1] and in assay [2] were 2.88 nM and 14.3 nM, respectively.

Turning to `CC[C@]1(O)CCC[C@@H]1n1c(=O)c(Cl)cc2cnc(NC3CCN(S(C)(=O)=O)CC3)nc21` (single isomer, unassigned) [Example 196, (+)-6-chloro-8-[(1R*,2R*)-2-ethyl-2-hydroxycyclopentyl]-2-{[1-(methylsulfonyl)piperidin-4-yl]amino}pyrido[2,3-d]pyrimidin-7(8H)-one], the Ki in assay [1] stood at 5.72 nM; in assay [2] it was 3.84 nM.

Regarding `C[C@H]1CCC[C@H]1n1c(=O)c(CO)cc2cnc(NC3CCN(S(C)(=O)=O)CC3)nc21` [Example 50, 6-(hydroxymethyl)-8-[(1R,2S)-2-methylcyclopentyl]-2-{[1-(methylsulfonyl)piperidin-4-yl]amino}pyrido[2,3-d]pyrimidin-7(8H)-one], the Ki is 0.27 nM in assay [1] and 0.08 nM in assay [2].

As to `C[C@]1(O)CCC[C@@H]1n1c(=O)c(CC(N)=O)cc2cnc(NC3CCN(S(C)(=O)=O)CC3)nc21` (single isomer, unassigned) [Example 180, (+)-2-(8-[(1R*,2R*)-2-hydroxy-2-methylcyclopentyl]-2-{[1-(methylsulfonyl)piperidin-4-yl]amino}-7-oxo-7,8-dihydropyrido[2,3-d]pyrimidin-6-yl)acetamide], the figures for the inhibition constant Ki in assay [1] and in assay [2] were 3.76 nM and 28.9 nM, respectively.

For `Cc1cc2cnc(NC3CCN(S(=O)(=O)NCC(C)(F)F)CC3)nc2n([C@@H]2CCC[C@@]2(C)O)c1=O` (single isomer, unassigned) [Example 104, (−)-N-(2,2-difluoropropyl)-4-({8-[(1R*,2R*)-2-hydroxy-2-methylcyclopentyl]-6-methyl-7-oxo-7,8-dihydropyrido[2,3-d]pyrimidin-2-yl}amino)piperidine-1-sulfonamide], the Ki was 0.14 nM in assay [1] and 0.77 nM in assay [2].

Turning to `CNS(=O)(=O)N1CCC(Nc2ncc3ccc(=O)n(C4CCCCCC4)c3n2)CC1` [Example 20, 4-[(8-cycloheptyl-7-oxo-7,8-dihydropyrido[2,3-d]pyrimidin-2-yl)amino]-N-methylpiperidine-1-sulfonamide], the Ki in assay [1] amounted to 0.42 nM; in assay [2] it was 1.95 nM.

Consider `COCc1cc2cnc(NC3CCN(S(C)(=O)=O)CC3)nc2n(C2CCCC2)c1=O` [Example 142, 8-cyclopentyl-6-(methoxymethyl)-2-{[1-(methylsulfonyl)piperidin-4-yl]amino}pyrido[2,3-d]pyrimidin-7(8H)-one], for which the Ki in assay [1] worked out at 1.88 nM; in assay [2], 0.55 nM.

Regarding `C[C@]1(O)CCC[C@@H]1n1c(=O)ccc2cnc(NC3CCN(S(=O)(=O)CF)CC3)nc21` (single isomer, unassigned) [Example 59, (+)-2-({1-[(fluoromethyl)sulfonyl]piperidin-4-yl}amino)-8-[(1R*,2R*)-2-hydroxy-2-methylcyclopentyl]pyrido[2,3-d]pyrimidin-7(8H)-one], the Ki in assay [1] turned out to be 4.13 nM; in assay [2], 3.37 nM.

As to `Cc1cc2cnc(NC3CCN(S(=O)(=O)NCC(C)(F)F)CC3)nc2n([C@H]2CCC[C@]2(C)O)c1=O` (single isomer, unassigned) [Example 105, (+)-N-(2,2-difluoropropyl)-4-({8-[(1R*,2R*)-2-hydroxy-2-methylcyclopentyl]-6-methyl-7-oxo-7,8-dihydropyrido[2,3-d]pyrimidin-2-yl}amino)piperidine-1-sulfonamide], the Ki is 3.35 nM in assay [1] and 22.7 nM in assay [2].

As for `C[C@@H]1[C@H](O)CC[C@H]1n1c(=O)c(C(F)F)cc2cnc(NC3CCN(S(C)(=O)=O)CC3)nc21` (single isomer, unassigned) [Example 204, (−)-6-(difluoromethyl)-8-[(1R*,2S*,3R*)-3-hydroxy-2-methylcyclopentyl]-2-{[1-(methylsulfonyl)piperidin-4-yl]amino}pyrido[2,3-d]pyrimidin-7(8H)-one], the Ki in assay [1] came out at 0.51 nM; in assay [2] it was 0.18 nM.

As for `CC[C@@]1(O)CCC[C@H]1n1c(=O)ccc2cnc(NC3CCN(S(C)(=O)=O)CC3)nc21` (single isomer, unassigned) [Example 193, (−)-(8-[(1R*,2R*)-2-ethyl-2-hydroxycyclopentyl]-2-{[1-(methylsulfonyl)piperidin-4-yl]amino}pyrido[2,3-d]pyrimidin-7(8H)-one], the Ki is 2.55 nM in assay [1] and 2.27 nM in assay [2].

Regarding `CS(=O)(=O)N1CCC(Nc2ncc3cc(Cl)c(=O)n([C@H]4CCC[C@H](O)C4)c3n2)CC1` (single isomer, unassigned) [Example 35, (−)-6-chloro-8-[(1R*,3R*)-3-hydroxycyclohexyl]-2-{[1-(methylsulfonyl)piperidin-4-yl]amino}pyrido[2,3-d]pyrimidin-7(8H)-one], the figures for the Ki in assay [1] and in assay [2] were 19.2 nM and 7.82 nM, respectively.

As to `Cc1cc2cnc(NC3CCN(S(=O)(=O)C(F)(F)F)CC3)nc2n([C@@H]2CCC[C@@]2(C)O)c1=O` (single isomer, unassigned) [Example 181, (−)-8-[(1R*,2R*)-2-hydroxy-2-methylcyclopentyl]-6-methyl-2-({1-[(trifluoromethyl)sulfonyl]piperidin-4-yl}amino)pyrido[2,3-d]pyrimidin-7(8H)-one], the figures for the Ki in assay [1] and in assay [2] were 1.32 nM and 0.85 nM, respectively.

On to `Cc1cc2cnc(NC3CCN(S(C)(=O)=O)CC3)nc2n(C2CCCCC(O)C2)c1=O` (single isomer, unassigned; isomer d) [Example 226, 8-(3-hydroxycycloheptyl)-6-methyl-2-{[1-(methylsulfonyl)piperidin-4-yl]amino}pyrido[2,3-d]pyrimidin-7(8H)-one-Isomer D], for which the Ki was found to be 310 nM in assay [1] and 6.58 nM in assay [2].

For the compound `CNS(=O)(=O)N1CCC(Nc2ncc3cc(C(F)F)c(=O)n([C@@H]4CCC[C@@]4(C)O)c3n2)CC1` (single isomer, unassigned) [Example 130, (−)-4-({6-(difluoromethyl)-8-[(1R*,2R*)-2-hydroxy-2-methylcyclopentyl]-7-oxo-7,8-dihydropyrido[2,3-d]pyrimidin-2-yl}amino)-N-methylpiperidine-1-sulfonamide], the results for the Ki in assay [1] and in assay [2] were 0.17 nM and 0.43 nM, respectively.
